This assay concerns Bovine cardiac myofibrils. In words: Dose-dependent myofibril ATPase modulation (calcium-buffered, pyruvate kinase and lactate dehydrogenase-coupled ATPase assay at pCa25). Format: biochemical. As to conditions: concentration at which ATPase activity was 1.4-fold higher than the bottom of the dose curve, mean of a minimum of two independent tests. As for the experimental part: In Vitro Model of Dose-Dependent Myofibril ATPase Modulation
Dose responses were measured using a calcium-buffered, pyruvate kinase and lactate dehydrogenase-coupled ATPase assay containing the following reagents (concentrations expressed are final assay concentrations): Potassium PIPES (12 mM), MgCl2 (2 mM), ATP (1 mM), DTT (1 mM), BSA (0.1 mg/ml), NADH (0.5 mM), PEP (1.5 mM), pyruvate kinase (4 U/ml), lactate dehydrogenase (8 U/ml), and antifoam (90 ppm). The pH was adjusted to 6.80 at 22° C. by addition of potassium hydroxide. Calcium levels were controlled by a buffering system containing 0.6 mM EGTA and varying concentrations of calcium, to achieve a free calcium concentration of 1×10^−4 M to 1×10^−8 M.
Bovine cardiac myofibrils were obtained by homogenizing the appropriate tissue in the presence of detergent. Such treatment removes membranes and majority of soluble cytoplasmic proteins but leaves intact cardiac sarcomeric acto-myosin apparatus. Concentrations of myofibrils were adjusted to achieve the necessary rate of ATP hydrolysis (typically 0.25-1.0 mg/ml).
Chemical entity dose responses were measured at the calcium concentration corresponding to 25% of maximal ATPase activity (pCa25), so a preliminary experiment was performed to test the response of the ATPase activity to free calcium concentrations in the range of 1×10^−4 M to 1×10^−8 M. Subsequently, the assay mixture was adjusted to the pCa25. Assays were performed by first preparing a dilution series of test chemical entity, each with an assay mixture containing potassium Pipes, MgCl2, BSA, DTT, pyruvate kinase, lactate dehydrogenase, myofibrils, antifoam, EGTA, CaCl2), and water. The assay was started by adding an equal volume of solution containing potassium Pipes, MgCl2, BSA, DTT, ATP, NADH, PEP, antifoam, and water. ATP hydrolysis was monitored by absorbance at 340 nm. The resulting dose response curve was fit by the 4 parameter equation y=Bottom+((Top−Bottom)/(1+((EC50/X)^Hill))). […] AC1.4 values reported in the table below are mean values based on a minimum of two independent tests.

Turning to `Cc1[nH]c(S(=O)(=O)NC23CC(c4ccccc4)(C2)C3)cc1C(=O)N1CC(C)(C#N)C1` [Compound 52, 4-(3-Cyano-3-methylazetidine-1-carbonyl)-5-methyl-N-(3-phenylbicyclo[1.1.1]pentan-l-yl)-1H-pyrrole-2-sulfonamide], the AC1.4 worked out at 1.4557 µM.
The result for `Cc1[nH]c(S(=O)(=O)N[C@H]2C[C@H](c3ccc(Cl)cc3)C2)cc1C(=O)N1CC(C)(C#N)C1` [Compound 53, N-((trans)-3-(4-chlorophenyl)cyclobutyl)-4-(3-cyano-3-methylazetidine-1-carbonyl)-5-methyl-1H-pyrrole-2-sulfonamide] reads 0.6222 µM; that for `Cc1[nH]c(S(=O)(=O)N[C@H]2C[C@@H](c3cccc(C(F)(F)F)c3)C2)cc1C(=O)N1CC(C)(C#N)C1` [Compound 54, 4-(3-Cyano-3-methylazetidine-1-carbonyl)-5-methyl-N-((cis)-3-(3-(trifluoromethyl)phenyl)cyclobutyl)-1H-pyrrole-2-sulfonamide], 2.9934 µM; that for `Cc1[nH]c(S(=O)(=O)N[C@H]2C[C@H](n3cc(C(F)(F)F)cn3)C2)cc1C(=O)N1CC(C#N)C1` [Compound 55, 4-(3-cyanoazetidine-1-carbonyl)-5-methyl-N-((trans)-3-(4-(trifluoromethyl)-1H-pyrazol-1-yl)cyclobutyl)-1H-pyrrole-2-sulfonamide], 5.7638 µM.
Take `Cc1nn([C@H]2C[C@H](NS(=O)(=O)c3cc(C(=O)N4CC(C#N)C4)c(C)[nH]3)C2)cc1C(F)(F)F` [Compound 56, 4-(3-Cyanoazetidine-1-carbonyl)-5-methyl-N-((trans)-3-(3-methyl-4-(trifluoromethyl)-1H-pyrazol-1-yl)cyclobutyl)-1H-pyrrole-2-sulfonamide]: the AC1.4 was found to be 0.9674 µM.
For the molecule `Cc1[nH]c(S(=O)(=O)N[C@H]2C[C@H](c3cc(C(F)(F)F)ccn3)C2)cc1C(=O)N1CC(C#N)C1` [Compound 57, 4-(3-Cyanoazetidine-1-carbonyl)-5-methyl-N-((trans)-3-(4-(trifluoromethyl)pyridin-2-yl)cyclobutyl)-1H-pyrrole-2-sulfonamide], the AC1.4 stood at 0.8572 µM.
Take `Cc1[nH]c(S(=O)(=O)N[C@H]2C[C@H](c3cc(C(F)(F)F)ccn3)C2)cc1C(=O)N1CC(C)(C#N)C1` [Compound 58]: the AC1.4 is 1.0081 µM.
`CNc1cc2c(cc1S(=O)(=O)N[C@H]1C[C@H](c3cc(C(F)(F)F)ccn3)C1)c(=O)[nH]c(=O)n2C` [Compound 59]: the AC1.4 is 0.4184 µM.
`CNc1cc2c(cc1S(=O)(=O)N[C@H]1C[C@H](c3cc(C(F)(F)F)ccn3)C1)c(=O)[nH]c(=O)n2C` [Compound 60, 1-Methyl-7-(methylamino)-2,4-dioxo-N-((trans)-3-(4-(trifluoromethyl)pyridin-2-yl)cyclobutyl)-1,2,3,4-tetrahydroquinazoline-6-sulfonamide]: the AC1.4 worked out at 2.062 µM.
Regarding `CNc1cc2c(cc1S(=O)(=O)N[C@H]1C[C@H](n3cc(C(F)(F)F)c(C)n3)C1)c(=O)[nH]c(=O)n2C` [Compound 61], the AC1.4 is 0.3215 µM.
As to `COc1cc2c(cc1S(=O)(=O)N[C@H]1C[C@H](n3cc(C(F)(F)F)c(C)n3)C1)c(=O)[nH]c(=O)n2C` [Compound 62, 7-Methoxy-1-methyl-N-((trans)-3-(3-methyl-4-(trifluoromethyl)-1H-pyrazol-1-yl)cyclobutyl)-2,4-dioxo-1,2,3,4-tetrahydroquinazoline-6-sulfonamide], the AC1.4 is 0.8691 µM.
For `Cc1[nH]c(S(=O)(=O)N[C@]2(Cc3ccc(Cl)cc3)CCOC2)cc1C(=O)N1CC(F)(F)C1` [Compound 64, (R)-N-(3-(4-chlorobenzyl)tetrahydrofuran-3-yl)-4-(3,3-difluoroazetidine-1-carbonyl)-5-methyl-1H-pyrrole-2-sulfonamide], the AC1.4 is 0.3886 µM.
On to `Cc1cnc(-c2cc(S(=O)(=O)N[C@H]3C[C@H](n4cc(C(F)(F)F)c(C)n4)C3)[nH]c2C)o1` [Compound 66, 5-Methyl-N-((trans)-3-(3-methyl-4-(trifluoromethyl)-1H-pyrazol-1-yl)cyclobutyl)-4-(5-methyloxazol-2-yl)-1H-pyrrole-2-sulfonamide], for which the AC1.4 is 1.1207 µM.
The figure for `Cc1[nH]c(S(=O)(=O)N[C@@H]2CCc3cc(Cl)ccc3C2)cc1C(=O)N1CC(C)(C#N)C1` [Compound 67, (R)-N-(6-chloro-1,2,3,4-tetrahydronaphthalen-2-yl)-4-(3-cyano-3-methylazetidine-1-carbonyl)-5-methyl-1H-pyrrole-2-sulfonamide] is 0.05605 µM.
For `Cc1[nH]c(S(=O)(=O)N[C@@H]2CCc3c([nH]c4ccccc34)C2)cc1C1=NCC(C)(C)O1` [Compound 68, (R)-4-(5,5-dimethyl-4,5-dihydrooxazol-2-yl)-5-methyl-N-(2,3,4,9-tetrahydro-1H-carbazol-2-yl)-1H-pyrrole-2-sulfonamide], the AC1.4 was determined as 0.1213 µM.
Consider `Cc1[nH]c(S(=O)(=O)N[C@@H]2Cc3ccc(Cl)cc3C2)cc1C(=O)N1CC(C)(C#N)C1` [Compound 69, (R)-N-(5-chloro-2,3-dihydro-1H-inden-2-yl)-4-(3-cyano-3-methylazetidine-1-carbonyl)-5-methyl-1H-pyrrole-2-sulfonamide], for which the AC1.4 was 0.166 µM.
The figure for `Cc1[nH]c(S(=O)(=O)N[C@@H]2COc3cc(F)c(F)cc3C2)cc1C(=O)N1CC(C)(C#N)C1` [Compound 70, (S)-4-(3-cyano-3-methylazetidine-1-carbonyl)-N-(6,7-difluorochroman-3-yl)-5-methyl-1H-pyrrole-2-sulfonamide] is 0.3162 µM; for `Cc1[nH]c(S(=O)(=O)N[C@@H]2COc3ccc(Cl)cc3C2)cc1C(=O)N1CC(C)(C#N)C1` [Compound 71, (S)-N-(6-chlorochroman-3-yl)-4-(3-cyano-3-methylazetidine-1-carbonyl)-5-methyl-1H-pyrrole-2-sulfonamide] it is 0.3054 µM.
Take `Cc1[nH]c(S(=O)(=O)N[C@@H]2COc3cc(Cl)ccc3C2)cc1C(=O)N1CC(C)(C#N)C1` [Compound 72, (S)-N-(7-chlorochroman-3-yl)-4-(3-cyano-3-methylazetidine-1-carbonyl)-5-methyl-1H-pyrrole-2-sulfonamide]: the AC1.4 came to 0.4237 µM.
The figure for `Cc1[nH]c(S(=O)(=O)N[C@@H]2COc3cc(F)c(Cl)cc3C2)cc1C(=O)N1CC(C)(C#N)C1` [Compound 73, (S)-N-(6-chloro-7-fluorochroman-3-yl)-4-(3-cyano-3-methylazetidine-1-carbonyl)-5-methyl-1H-pyrrole-2-sulfonamide] is 0.0793 µM; for `Cc1[nH]c(S(=O)(=O)N[C@@H]2COc3ccc(Cl)cc3[C@@H]2O)cc1C(=O)N1CC(C#N)C1` [Compound 74, N-((3R,4S)-6-chloro-4-hydroxychroman-3-yl)-4-(3-cyanoazetidine-1-carbonyl)-5-methyl-1H-pyrrole-2-sulfonamide] it is 0.5684 µM.
The figure for `Cc1[nH]c(S(=O)(=O)N[C@H]2COc3ccc(Cl)cc3[C@@H]2O)cc1C(=O)N1CC(C)(C#N)C1` [Compound 75, N-((3S,4S)-6-chloro-4-hydroxychroman-3-yl)-4-(3-cyano-3-methylazetidine-1-carbonyl)-5-methyl-1H-pyrrole-2-sulfonamide] is 0.5877 µM; for `Cc1[nH]c(S(=O)(=O)N[C@@H]2COc3cc(F)c(Cl)cc3[C@H]2O)cc1C(=O)N1CC(C)(C#N)C1` [Compound 77, N-((3R,4R)-6-chloro-7-fluoro-4-hydroxychroman-3-yl)-4-(3-cyano-3-methylazetidine-1-carbonyl)-5-methyl-1H-pyrrole-2-sulfonamide] it is 0.1896 µM.
Regarding `Cc1[nH]c(S(=O)(=O)N[C@@H]2COc3cc(F)c(Cl)cc3[C@@H]2O)cc1C(=O)N1CC(C)(C#N)C1` [Compound 78, N-((3R,4S)-6-chloro-7-fluoro-4-hydroxychroman-3-yl)-4-(3-cyano-3-methylazetidine-1-carbonyl)-5-methyl-1H-pyrrole-2-sulfonamide], the AC1.4 was 0.1127 µM.
For the molecule `Cc1[nH]c(S(=O)(=O)NC2Cc3cc(Cl)c(Cl)cc3C2)cc1C(=O)N1CC(C)(C#N)C1` [Compound 79, 4-(3-cyano-3-methylazetidine-1-carbonyl)-N-(5,6-dichloro-2,3-dihydro-1H-inden-2-yl)-5-methyl-1H-pyrrole-2-sulfonamide], the AC1.4 amounted to 0.0599 µM.
Regarding `Cc1[nH]c(S(=O)(=O)N[C@H]2COc3cc(F)c(Cl)cc3C2)cc1C(=O)N1CC(C)(C#N)C1` [Compound 80, (R)-N-(6-chloro-7-fluorochroman-3-yl)-4-(3-cyano-3-methylazetidine-1-carbonyl)-5-methyl-1H-pyrrole-2-sulfonamide], the AC1.4 came to 13.1993 µM.

For the origin of these results see patent US20220332708A1 (Cytokinetics, Inc., priority 2021, published 2022).
